Earlier results as cited in patent US20100196504A1, “SYNERGISTIC ACTIVE PREPARATIONS COMPRISING 1,2-DECANEDIOL AND FURTHER ANTIMICROBIAL ACTIVE COMPOUNDS” (SYMRISE GmbH & Co. KG, priority 2007, published 2010).

What was measured:
[1] = test system: Propionibacterium acnes; settings: microorganism causing acne
[2] = test system: Corynebacterium acnes; settings: microorganism causing body odour
[3] = test system: Staphylococcus epidermidis; settings: microorganism causing body odour

Measured: antimicrobial activity

CCCCCCCCC(O)CO (stereo not drawn) [1,2-decanediol]
antimicrobial activity: all assays above
